The test system of series [1] is bladder cancer cell line RT112. The experiment in a line: inhibition of proliferation of cancer cells. Type of series: cell-based. The conditions noted are these: Homo sapiens, RT-112, read-out: Ability of inhibiting proliferation of RT112 (GI50). How it is done:
The ability of the compound of the present invention of inhibiting the proliferation of the bladder cancer cell line RT112 was determined as the GI50 value.

In series [2] the test system is RT112 bladder cancer cell line. Particulars: literature statement; cited from earlier work.
For a further series, the target named is FGFR3 (Homo sapiens, UniProt P22607). The conditions noted are these: literature statement; cited from earlier work.
FGFR3, sequence (P22607 23-806): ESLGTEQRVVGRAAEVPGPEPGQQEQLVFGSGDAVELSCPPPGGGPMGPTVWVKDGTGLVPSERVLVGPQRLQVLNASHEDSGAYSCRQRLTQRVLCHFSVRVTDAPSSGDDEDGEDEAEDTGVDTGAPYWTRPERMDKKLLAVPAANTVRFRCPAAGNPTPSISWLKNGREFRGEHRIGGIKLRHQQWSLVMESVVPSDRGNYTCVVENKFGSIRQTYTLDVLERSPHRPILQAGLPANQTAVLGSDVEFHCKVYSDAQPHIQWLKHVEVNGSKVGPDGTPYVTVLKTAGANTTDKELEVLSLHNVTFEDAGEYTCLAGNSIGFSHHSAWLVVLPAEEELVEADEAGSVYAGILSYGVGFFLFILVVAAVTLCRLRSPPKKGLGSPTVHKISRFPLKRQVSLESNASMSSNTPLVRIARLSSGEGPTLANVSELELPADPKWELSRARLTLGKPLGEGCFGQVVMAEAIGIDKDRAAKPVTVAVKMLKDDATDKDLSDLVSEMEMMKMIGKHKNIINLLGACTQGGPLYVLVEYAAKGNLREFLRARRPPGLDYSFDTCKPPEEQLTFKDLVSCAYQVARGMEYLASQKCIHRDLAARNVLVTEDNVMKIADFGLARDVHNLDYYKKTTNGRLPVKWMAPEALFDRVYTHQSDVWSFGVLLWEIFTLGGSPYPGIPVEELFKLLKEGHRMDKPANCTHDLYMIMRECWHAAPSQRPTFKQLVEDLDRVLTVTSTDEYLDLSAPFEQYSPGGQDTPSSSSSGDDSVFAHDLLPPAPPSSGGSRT
Series [3] can be described thus: microsomal stability. Type of series: in vitro ADME, Dog. Particulars: Dog. How it is done: (§1) The microsomal stability of N-(2,6-dichloro-3,5-dimethoxyphenyl)-1-(6-((4-(4-ethylpiperazin-1-yl)phenyl)amino)pyrimidin-4-yl)-1H-benz[d]imidazol-2-amine synthesized in Example 1, as a representative compound of the present invention, was evaluated.
Series [4] is described as follows: microsomal stability. Type of series: in vitro ADME, Rat. The conditions noted are these: Rat. The method, then: as §1
Series [5] can be described thus: microsomal stability. The series is classed as in vitro ADME, Mouse. The conditions noted are these: Mouse. The method, then: as §1
The nature of series [6]: microsomal stability. Particulars: Human. The series is classed as in vitro ADME, Human. The method, then:
as §1

Molecules are shown by their SMILES.

`COc1cc(N2CCN(C)CC2)ccc1Nc1cc(-n2c(Nc3c(Cl)c(OC)cc(OC)c3Cl)nc3ccccc32)ncn1` [Example 2, N-(2,6-dichloro-3,5-dimethoxyphenyl)-1-(6-((2-methoxy-4-(4-methylpiperazin-1-yl)phenyl)amino)pyrimidin-4-yl)-1H-benz[d]imidazol-2-amine]: in series [1], the GI50 is < 1000 nM.

As to `COc1cc(OC)c(Cl)c(Nc2nc3ccccc3n2-c2cc(Nc3ccc(N4CCOCC4)cc3)ncn2)c1Cl` [Example 3, N-(2,6-dichloro-3,5-dimethoxyphenyl)-1-(6-((4-morpholinophenyl)amino)pyrimidin-4-yl)-1H-benz[d]imidazol-2-amine], the GI50 in series [1] is < 1000 nM.

`COc1cc(N2CCOCC2)ccc1Nc1cc(-n2c(Nc3c(Cl)c(OC)cc(OC)c3Cl)nc3ccccc32)ncn1` [Example 4, N-(2,6-dichloro-3,5-dimethoxyphenyl)-1-(6-((2-methoxy-4-morpholinophenyl)amino)pyrimidin-4-yl)-1H-benz[d]imidazol-2-amine]: the GI50 in series [1] was < 1000 nM.

Regarding `COc1cc(OC)c(Cl)c(Nc2nc3ccccc3n2-c2cc(Nc3ccc(N4CCC(N5CCCCC5)CC4)c(C(F)(F)F)c3)ncn2)c1Cl` [Example 5, 1-(6-((4-([1,4′-bipiperidin]-1′-yl)-3-(trifluoromethyl)phenyl)amino)pyrimidin-4-yl)-N-(2,6-dichloro-3,5-dimethoxyphenyl)-1H-benz[d]imidazol-2-amine], in series [1], the GI50 was < 10000 nM.

As for `COc1cc(OC)c(Cl)c(Nc2nc3ccccc3n2-c2cc(Nc3ccc(CN4CCN(CC5CCCCC5)CC4)cc3)ncn2)c1Cl` [Example 6, 1-(6-((4-((4-(cyclohexylmethyl)piperazin-1-yl)methyl)phenyl)amino)pyrimidin-4-yl)-N-(2,6-dichloro-3,5-dimethoxyphenyl)-1H-benz[d]imidazol-2-amine], the GI50 in series [1] was < 10000 nM.

In the case of `COc1cc(OC)c(Cl)c(Nc2nc3ccccc3n2-c2cc(N)ncn2)c1Cl` [Example 8], the GI50 in series [1] is < 1000 nM.

As to `CNc1cc(-n2c(Nc3c(Cl)c(OC)cc(OC)c3Cl)nc3ccccc32)ncn1` [Example 9, N-(2,6-dichloro-3,5-dimethoxyphenyl)-1-(6-(methylamino)pyrimidin-4-yl)-1H-benz[d]imidazol-2-amine], in series [1], the GI50 was < 1000 nM.

Take `COc1cc(OC)c(Cl)c(Nc2nc3ccccc3n2-c2cc(Nc3ccccc3)ncn2)c1Cl` [Example 10, N-(2,6-dichloro-3,5-dimethoxyphenyl)-1-(6-(phenylamino)pyrimidin-4-yl)-1H-benz[d]imidazol-2-amine]: in series [1], the GI50 was < 1000 nM.

Consider `COc1cc(OC)c(Cl)c(Nc2nc3ccccc3n2-c2cc(Nc3ncccn3)ncn2)c1Cl` [Example 11, N-(2,6-dichloro-3,5-dimethoxyphenyl)-1-(6-(pyrimidin-2-ylamino)pyrimidin-4-yl)-1H-benz[d]imidazol-2-amine], for which the GI50 in series [1] is < 1000 nM.

In the case of `CCN1CCN(c2ccc(Nc3cc(N(C)C(=O)Nc4c(Cl)c(OC)cc(OC)c4Cl)ncn3)cc2)CC1` [NVP-BGJ398, 3-(2,6-dichloro-3,5-dimethoxyphenyl)-1-{6-[4-(4-ethyl-piperazin-1-yl)phenylamino]pyrimidin-4-yl}-1-methylurea], the “anticancer activity for the RT112 bladder cancer cell line, in words” value in series [2] is recorded as “effective anticancer activity”. For the same compound, the “inhibition activity against FGFR3, in words” value on FGFR3 was “selective inhibition activity”.

As to `Cc1ncc2n1-c1ccc(Cl)cc1C(c1ccccc1F)=NC2` [midazolam, reference compound], the “microsomal stability (% at time)” value is reported as 100.00% in the series “microsomal stability [3]” (0 min); 6.23% in “microsomal stability [3]” (5 min); 0.59% in the series “microsomal stability [3]” (10 min); 0.27% in the series “microsomal stability [3]” (15 min); 0.10% in “microsomal stability [3]” (30 min); 100.00% in the series “microsomal stability [4]” (0 min). For the same compound, the “microsomal stability (% at time)” value in the series “microsomal stability [4]” (5 min) stood at 13.65%; in the series “microsomal stability [4]” (10 min), 1.01%; in the series “microsomal stability [4]” (15 min), 0.14%; in the series “microsomal stability [4]” (30 min), 0.04%; in the series “microsomal stability [5]” (0 min) it was 100.00%; in “microsomal stability [5]” (5 min) it was 10.42%. Besides, the “microsomal stability (% at time)” value was 1.13% in “microsomal stability [5]” (10 min); 0.18% in the series “microsomal stability [5]” (15 min); 0.05% in the series “microsomal stability [5]” (30 min); 100.00% in the series “microsomal stability [6]” (0 min); 38.75% in the series “microsomal stability [6]” (5 min); 12.92% in the series “microsomal stability [6]” (10 min). Further, the results for the “microsomal stability (% at time)” value in “microsomal stability [6]” (15 min) and in “microsomal stability [6]” (30 min) were 5.60% and 0.73%, respectively.

The values above are taken from patent publication US9586936B2, “Heteroarylamine derivatives as protein kinase inhibitors” (KOREA INSTITUTE OF SCIENCE AND TECHNOLOGY, priority 2014, dated 2017).
